Measured values as given in patent US7109229B2, “Methods and compounds for treating proliferative diseases” (Eli Lilly and Company, priority 2000, dated 2006).
Structures can show the parent of a compound that is named as a salt. Marks after values point to notes of the source that are not given here.

How the values were obtained:
protein kinase A = details: background, literature; cited from earlier work
protein kinase C = details: background, literature; cited from earlier work
Cyclin D1-cdk4 [1] = target: T1, Cyclin D1-cdk4 (Homo sapiens, UniProt P11802); experiment: Cyclin D1-cdk4 kinase activity with the Rb21 protein as substrate; format: biochemical
Experimental: The compounds of Formula I were tested using in vitro. An important in vitro test is the ability of the compound to inhibit the activity of the CDK4 enzyme. This test is done using Rb^ING and/or Rb^21 substrates as described in the literature ([…]., et al, J. Biol. Chem. 273, 26506-26515 (1998)). […] The reaction was incubated at room temperature (about 74° F.) for 60 minutes, and then terminated by the addition of 100 ul of 25% trichloroacetic acid. Next, the reaction was filtered through a Millipore Multiscreen-FC Plate-Catalog number MAFC NOB 10, and the plate was washed 2 times with 320 ul each of 10% trichloroacetic acid, followed by the addition of 100 ul of scintillation fluid and quantitation on a Packard Instruments, Top Count, scintillation counter.

HCT116 cells [2] = experiment: G1 arrest test, cell cycle analysis using flow cytometry; format: cell-based, human; details: HCT116 cells after 24 h incubation period; at IC50 conc.
Text: (§1) A major in vitro test is the cell growth inhibition test. In this test, the concentration of the test compound that causes a 50% inhibition of cell growth for a selected cell line. A low value is desirable in this test. This test is done according to a standard protocol (SCHULTZ, R. M., et al, Oncology Res. 5, 223–228 (1993)). Another major in vitro test is the G1 arrest test. This test measures the proportion of the cells that are arrested in the G1 phase relative to control. A result above 1.5 is desirable in this test. […] The results are expressed as a percentage inhibition of ser-780 pRb phosphorylation in drug treated cells versus control cells treated with DMSO alone. […]

H460 cells = experiment: Cell growth inhibition assay (MTT), H460; format: cell-based; details: Homo sapiens, NCI-H460, 72 h drug exposure
Text: as §1

[3] = system: Ser-780 pRb phosphorylation in HCT116 cells; experiment: Inhibition of Rb phosphorylation assay; format: cell-based, human; details: HCT116 cells after 24 h incubation period
Text: as §1
Human HCT116 colon carcinoma cell line was purchased from American Tissue Culture Collection (Rockville, Md.) and maintained as monolayer in RPMI-1640 with L-Glutamine and 25 mM HEPES supplemented with 10% fetal bovine serum in a 37° C. incubator with a 10% CO2 atmosphere. […] Protein concentration was determined by the Bio-Rad DC protein assay (Bio-Rad, Hercules, Calif.). […]

Cyclin D1-cdk4 [4] = target: T1, Cyclin D1-cdk4; experiment: Cyclin D1-cdk4 kinase activity with the ING peptide as substrate; format: biochemical
Experimental: The compounds of Formula I were tested using in vitro. An important in vitro test is the ability of the compound to inhibit the activity of the CDK4 enzyme. This test is done using Rb^ING and/or Rb^21 substrates as described in the literature (KONSTANTINIDIS, A. K., et al, J. Biol. Chem. 273, 26506–26515 (1998)). The test yields the micromolar concentration of the test compound, which produces a 50% inhibition of the CDK4 enzyme activity.
Assay of Cyclin D1-cdk4 Kinase Activity with the ING Peptide as Substrate.
The cyclin D1-cdk4 kinase activity of a compound was assayed by preparing a 100 ul reaction at the following concentrations: 35 mM Hepes pH 7.0, 10 mM MgCl2, 300 uM ATP, 200 uM ING peptide, 1.0 uCi of γ-^33P-ATP, 4.34 ug of cyclin D-cdk4 enzyme, 4% DMSO, and various concentrations of inhibitor. The reaction was incubated at room temperature (about 74° F.) for 60 minutes, and then terminated by the addition of 100 ul of 10% phosphoric acid. Next, the reaction was filtered through a Millipore Multiscreen-PH Plate—Catalog number MAPH NOB 10, and the plate was washed 2 times with 320 ul each of 0.5% phosphoric acid, followed by the addition of 100 ul of scintillation fluid and quantitation on a Packard Instruments, Top Count, scintillation counter.

HCT116 cells [5] = experiment: Cell growth inhibition assay (MTT), HCT116; format: cell-based; details: Homo sapiens, HCT-116, 72 h drug exposure
Text: as §1

[6] = Table 1, Rb21 protein substrate, read-out: Rb21 IC50
[7] = Table 1, ING peptide substrate, read-out: RbING IC50

T1 sequence (P11802 whole entry): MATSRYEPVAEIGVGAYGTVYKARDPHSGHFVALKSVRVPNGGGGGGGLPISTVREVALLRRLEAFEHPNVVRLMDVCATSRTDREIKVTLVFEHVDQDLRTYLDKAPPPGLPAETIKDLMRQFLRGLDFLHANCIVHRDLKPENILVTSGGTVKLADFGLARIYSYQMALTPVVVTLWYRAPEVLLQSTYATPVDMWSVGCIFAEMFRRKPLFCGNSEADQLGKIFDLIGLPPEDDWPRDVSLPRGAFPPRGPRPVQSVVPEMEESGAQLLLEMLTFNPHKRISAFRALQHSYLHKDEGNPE
T1 sequence (P24385 whole entry partner): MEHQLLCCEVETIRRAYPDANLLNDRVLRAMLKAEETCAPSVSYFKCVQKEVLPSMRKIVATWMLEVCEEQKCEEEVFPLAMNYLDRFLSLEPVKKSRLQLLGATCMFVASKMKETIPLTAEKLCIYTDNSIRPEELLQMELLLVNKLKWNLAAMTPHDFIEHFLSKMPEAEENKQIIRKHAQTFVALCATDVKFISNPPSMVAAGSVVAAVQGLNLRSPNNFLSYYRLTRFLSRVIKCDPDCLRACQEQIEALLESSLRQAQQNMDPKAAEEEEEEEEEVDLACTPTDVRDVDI

IC50 (Cyclin D1-cdk4 [1]; [6]) | IC50 (Cyclin D1-cdk4 [4]; [7]) | SMILES | other results
– | – | CN1CC[C@H](c2c(O)cc(O)c3c(=O)cc(-c4ccccc4Cl)oc23)[C@H](O)C1 [Flavopiridol] | concentration at which protein kinase A is inhibited (protein kinase A): ≥ 10 μM/L; concentration at which protein kinase C is inhibited (protein kinase C): ≥ 10 μM/L
0.0116 µM | – | COc1ccc2c3c4c(c5c(ccc6ccn(C)c65)c3n(CCCO)c2c1)C(=O)NC4=O [Example 11, 13-(3-Hydroxy-propyl)-11-methoxy-5-methyl-5H,13H-indolo[6,7-a]pyrrolo[3,4-c]carbazole-6,8-dione] | –
0.00165 µM | 0.0431 µM | COc1ccc2c(c1)[nH]c1c3ccc4ccn(C)c4c3c3c(c21)C(=O)NC3=O [Example 1, 11-Methoxy-5-methyl-5H,13H-indolo[6,7-a]pyrrolo[3,4-c]carbazole-6,8-dione] | G1 Arrest; x vs control (HCT116 cells [2]): 2.6^c x vs control; IC50 (Cyclin D1-cdk4 [1]; Table 2, Rb^21 substrate, read-out: CDK4 Inhibition (IC50/μM) Rb^21): 0.001 µM; IC50 (H460 cells): 1.09 µM; % Inhibtion of Rb Phosphorylation in vitro @3XIC50 ([3]; compound at 3XIC50): 97%; % Inhibtion of Rb Phosphorylation in vitro @IC50 ([3]; compound at IC50): 90%; IC50 (Cyclin D1-cdk4 [4]; Table 2, Rb^ING substrate, read-out: CDK4 Inhibition (IC50/μM) Rb^ING): 0.04 µM; IC50 (HCT116 cells [5]): 1.8 µM
0.0347 µM | 0.0763 µM | CN1CCN(CCCc2cccc3c2[nH]c2c4ccc5ccn(C)c5c4c4c(c32)C(=O)NC4=O)CC1 [Example 79, 12-(1-Methyl-4-propyl-piperazine)-5-methyl-7H,13H-indolo[6,7-a]pyrrolo[3,4-c]carbazole-6,8-dione] | –
0.0109 µM | 0.0782 µM | Cn1ccc2ccc3c4[nH]c5c(CCN6CCCCC6)cccc5c4c4c(c3c21)C(=O)NC4=O [Example 83, 5-Methyl-12-(2-ethylpiperidine)-7H,13H-indolo[6,7-a]pyrrolo[3,4-c]carbazole-6,8-dione] | –
0.0246 µM | 0.042 µM | COc1ccc2c3c4c(c5c(ccc6ccn(C)c65)c3n(CCCNCCN(C)C)c2c1)C(=O)NC4=O [Example 55, 11-Methoxy-5-methyl-13-(N,N-dimethyl-N′-propyl-ethane-1,2-diamine)-7H-indolo[6,7-a]pyrrolo[3,4-c]carbazole-6,8-dione] | –
0.0177 µM | 0.0992 µM | COc1ccc2c3c4c(c5c(ccc6ccn(C)c65)c3n(CCCNCCN(C)C)c2c1)C(=O)NC4=O [Example 56, 11-Methoxy-5-methyl-13-(N,N-dimethyl-N′-propyl-ethane-1,2-diamine)-7H-indolo[6,7-a]pyrrolo[3,4-c]carbazole-6,8-dione dihydrochloride] | –
0.0451 µM | 0.12 µM | COC(=O)[C@H](C)NCCCn1c2cc(OC)ccc2c2c3c(c4c(ccc5ccn(C)c54)c21)C(=O)NC3=O [Example 59, (S)-(+)-11-Methoxy-5-methyl-13-(2-propylamino-propionic acid methyl ester)-7H-indolo[6,7-a]pyrrolo[3,4-c]carbazole-6,8-dione] | –
0.0109 µM | 0.0226 µM | CN1CCN(CCc2cccc3c2[nH]c2c4ccc5ccn(C)c5c4c4c(c32)C(=O)NC4=O)CC1 [Example 68, 5-Methyl-12-(1-ethyl-4-methyl-piperazine)-7H,13H-indolo[6,7-a]pyrrolo[3,4-c]carbazole-6,8-dione] | –
– | – | Cc1ccc2c(c1)[nH]c1c3ccc4ccn(C)c4c3c3c(c21)C(=O)NC3=O [Example 92, 11-Methyl-5-methyl-7H,13H-indolo[6,7-a]pyrrolo[3,4-c]6,8-dione] | melting point: 170 °C (dec.)
0.0357 µM | 0.0824 µM | COc1ccc2c3c4c(c5c(ccc6ccn(C)c65)c3n(CCN3CCC(C(N)=O)CC3)c2c1)C(=O)NC4=O [Example 36, 11-Methoxy-5-methyl-13-(1-ethyl-piperidine-4-carboxylic acid amide)-7H-indolo[6,7-a]pyrrolo[3,4-c]carbazole-6,8-dione] | –
– | – | Cn1ccc2ccc3c4[nH]c5ccc(C(F)(F)F)cc5c4c4c(c3c21)C(=O)NC4=O [Example 94, 10-Trifluoromethyl-5-methyl-7H,13H-indolo[6,7-a]pyrrolo[3,4-c]6,8-dione] | melting point: 100 to 110 °C (dec.)
0.0215 µM | – | Cn1ccc2ccc3c4[nH]c5ccccc5c4c4c(c3c21)C(=O)NC4=O [Example 2, 5-Methyl-7H,13H-indolo[6,7-a]-pyrrolo[3,4-c]-carbazole-6,8-dione] | –
